In US20130004590A1, “ZINC OXIDE/ACID CONTAINING COMPOSITIONS AND METHODS FOR TREATING AND/OR PREVENTING ENZYMATIC IRRITATION” (priority 2011, published 2013):
Where two headings read alike, the source gives them in different places.

Assays:
[1] = Procedure: (§1) The objective of the following experiment was to determine whether and to what extent adding an acid to a formulation containing zinc oxide had on inhibition of trypsin activity in an in vitro assay. The inhibition of trypsin-induced cleavage of a fluorescent casein peptide was measured using the EnzChek™ protease assay kit, following manufacturer's instructions (EnzChek™ Protease Assay Kits Product Information, Revised; Molecular Probes, Eugene Oreg.). Briefly, mixtures of zinc oxide and acid at different concentrations were prepared in 1×PBS (pH 7.4) and their pH was recorded as listed in the Tables 5-8. Trypsin working solution (Sigma, St. Louis, Mo., unit/mL) was prepared in digestion buffer provided in the assay kit. Stock solution of BODIPY FL casein (trypsin substrate, mg/mL) was prepared by adding 0.2 mL to the substrate vials (provided in kit), and the final substrate working solution (10 microgram/mL) was prepared by dilution in digestion buffer (pH 7.8). Following incubation of the trypsin, with or without the test materials (50 μl), with the BODIPY fluorescent casein substrate, at room temperature for one hour, fluorescence was measured (excitation 485 nm/emission 530 nm) using a SpectraMax microtiter plate reader (Molecular Devices Corporation, Sunnyvale, Calif.) and Softmax Pro software (Molecular Devices Corporation). Each experiment was performed in three replicates.
[2] = system: trypsin; assay: EnzChek protease assay: trypsin inhibition by mixtures of talc with divalent cation salts; format: biochemical; conditions: for Hypothetically calculated additive value of salt and Talc, trypsin inhibition activities (%): Table 3, salt alone plus talc alone (8.55%)
Procedure: as §1, with “a divalent cation” for “an acid”, “talc inhibited” for “a formulation containing zinc oxide had on inhibition of”, “Briefly, mixtures of zinc oxide and acid at different concentrations were prepared in 1×PBS (pH 7.4) and their pH was recorded as listed in the Tables 5-8.” left out, “materials,” for “materials (50 μl),”

[3] = system: trypsin; assay: EnzChek protease assay: trypsin inhibition by zinc oxide/acid mixtures and formulations; format: biochemical; conditions: text b137, on Table 5
Procedure: Each experiment was performed in three replicates.
For preparations, samples were diluted in 1×PBS at 1:10 ratio and subjected to centrifugation at 13,200 rpm for 1 min using Eppendorf Centrifuge (Model 5415D, Eppendorf AG, Hamburg, Germany) to remove the solid formulation ingredients. The supernatants (50 μl) were used for trypsin inhibitory activity analyses as described above. For preparations, samples were diluted in 10, or 20 or 40% ethanol and subjected to centrifugation at 13,200 rpm for 1 min using Eppendorf Centrifuge (Model 5415D, Eppendorf AG, Hamburg, Germany) to remove the solid formulation ingredients. The supernatants (50 μl) were used for trypsin inhibition assay. Possible effects of ethanol solution (10, 20 or 40% ethanol) on trypsin inhibition activity were tested in the same study and found no significant impact.
For the above study, the results are an average of three independent experiments, wherein the samples, which were diluted at 1:10 ratio in 1×PBS solutions containing 10%, 20% or 40% ethanol, were tested in triplicates. The results are from an average of all conditions at the same dilution.
For the currently available product (i.e., Baby Paste 5.0, Mendelson Pharmaceuticals LLC, Mountainside, N.J.), the results are an average of a single study: sample diluted at 1:10 ratio, in 1×PBS solutions containing 10%, 20% or 40% ethanol, was tested in triplicate. […]

Compound: CC(=O)O [acetic acid]
- pH ([1]; No ZnO, 0.01% acetic acid in 1x PBS): 6.84
- pH ([1]; No ZnO, 0.05% acetic acid in 1x PBS): 4.75

Compound: O.O.O.O.[Cl][Fe][Cl] [Iron (II) chloride tetrahydrate]
- Hypothetically calculated additive value of salt and Talc, trypsin inhibition activities (%) [2]: 73.62%

Compound: [O]=[Zn] [ZnO, zinc oxide]
- protease activity of zinc oxide, in words [3]: minimal protease activity
- pH ([1]; 0.1% ZnO, 0.01% acetic acid in 1x PBS): 7.28
- pH ([1]; 0.1% ZnO, 0.05% acetic acid in 1x PBS): 6.03
- pH ([1]; 0.1% ZnO, No acetic acid in 1x PBS): 7.61
- pH ([1]; 1% ZnO, 0.01% acetic acid in 1x PBS): 7.85
- pH ([1]; 1% ZnO, 0.05% acetic acid in 1x PBS): 6.08
- pH ([1]; 1% ZnO, No acetic acid in 1x PBS): 8.07

Compound: CC(=O)[O-].CC(=O)[O-].O.[Ca+2] [Calcium acetate monohydrate]
- Hypothetically calculated additive value of salt and Talc, trypsin inhibition activities (%) [2]: 23.86%

Compound: CC(=O)[O-].CC(=O)[O-].[Zn+2] [Zinc acetate dihydrate]
- Hypothetically calculated additive value of salt and Talc, trypsin inhibition activities (%) [2]: 71.39%

Compound: [Cl-].[Cl-].[Zn+2] [Zinc chloride]
- Hypothetically calculated additive value of salt and Talc, trypsin inhibition activities (%) [2]: 89.62%

Compound: CC(=O)[O-].CC(=O)[O-].O.O.O.O.[Mg+2] [Magnesium acetate tetrahydrate]
- Hypothetically calculated additive value of salt and Talc, trypsin inhibition activities (%) [2]: 9.38%

Compound: [Cl-].[Cl-].[Mg+2] [Magnesium chloride]
- trypsin inhibitory activity, alone, in words [2]: moderate to low levels
- Hypothetically calculated additive value of salt and Talc, trypsin inhibition activities (%) [2]: 13.30%

Compound: [Ca+2].[Cl-].[Cl-] [Calcium chloride]
- Hypothetically calculated additive value of salt and Talc, trypsin inhibition activities (%) [2]: 26.50%
